Measurements taken from publication PMC8026785, “The pharmacokinetics of [^18F]UCB-H revisited in the healthy non-human primate brain” (EJNMMI Research, 2021).
Several values for one entry are separate records, joined by “and”; a condition that tells them apart may be missing. Equal entries are not always repeated.

Biological target: T1, SV2A (Macaca fascicularis, UniProt Q4R4X3)
T1 construct: The current study evaluates [^18F]UCB-H pharmacokinetics in healthy NHPs; from tissue; host or cells: brain of living healthy cynomolgus monkeys (in vivo PET)
Test: Brain PET kinetic modelling (1TCM, 2TCM, 2TCM-c, Logan), test-retest
Format: in vivo, cynomolgus monkeys (Macaca fascicularis)
Experimental: All four non-human primates (NHP) underwent a 2-h (2 h) test and retest PET scan; two NHP underwent an additional 4-h (4 h) retest PET scan. Three NHP underwent one 4-h (4 h) displacement PET scan. Arterial blood sampling was performed during test and retest scans with PET imaging spaced by at least 3 weeks between each scan. To this end, the femoral artery opposite to the saphenous vein used for radioligand injection was cannulated. For the 2-h (2 h) scans, we collected in total 28 blood samples of 1 mL: 16 samples during the first 5 min followed by […] every 5 min and […] every 10 min. For the 4 h scans, we collected an additional 6 samples every 20 min during the last two hours (34 samples in total). Larger samples (2 – 3 mL) were collected at 5, 15, 30, 60, 90, 120 min (2 h) and at 180, 240 min (4 h) for metabolite analysis. Displacement of [^18F]UCB-H was done by intravenous (IV) administration 90 min after [^18F]UCB-H injection of a bolus of 30 mg/kg LEV, or of 80 µg/kg (≈250 nmol/kg) or 5 mg/kg (≈15 µmol/kg) of cold [^19F]-UCB-H. Full experimental design of all NHP is outlined in Additional file 1: Table 1.
PET imaging was performed on the microPET FOCUS220 (Siemens) under standard anesthesia and monitoring procedures. Data acquisition started with the IV bolus injection of [^18F]UCB-H (32.9 ± 1.0 MBq/kg, 0.35 ± 0.07 µg/kg). Dynamic PET images were reconstructed using standard OSEM-2D algorithms while correcting for radioactive decay, scatter, attenuation and detectors inhomogeneity, which were measured prior to PET scanning using respectively ^57Co and ^68Ge external sources.
PET image analysis was performed using PMOD software version 3.8 (PMOD Technologies Ltd., Zurich, Suisse). After individual co-registration of PET-MR images, a cynomolgus atlas published by Ballanger and coworkers was normalized to PET images to extract time activity curves in different brain regions. Volumes of interest (VOI) were cerebral white matter (16.7 cm^3), striatum (0.24 cm^3), thalamus (0.89 cm^3), cerebellum (3.83 cm^3), frontal—(2.50 cm^3), parietal—(5.35 cm^3), and temporal (8.22 cm^3) cortex, and whole brain (72.2 cm^3) as a composite region of all regions in the atlas. [^18F]UCB-H pharmacokinetics were evaluated by analyzing the time activity curves of the test- and retest scans using 1- and 2-tissue compartment models (unconstrained and constrained with global K1/k2 coupled fit across all regions, further referred to as 2TCM and 2TCM-c), and Logan graphical analysis with a fixed t* at 60 min [33] using the arterial plasma input function corrected for radio-metabolites to derive the volume of distribution in each region. Percentage standard error (%SE) was estimated from the theoretical parameter covariance matrix. Only reliable estimates (%SE less than 25%) were included in the current analyses. For the three drug studies, percent displacement of the total activity in the whole brain was estimated relative to an average baseline constructed from the two 4 h baseline studies. Briefly, Standardized Uptake Value (SUV) time activity curves (TACs) were calculated for the two baseline and the three displacement studies. Then, each curve was normalized to the SUV at t = 90 min, corresponding to the timeframe immediately before the administration of the drugs in the displacement studies. Baseline curves were averaged and the percent displacement of total activity was calculated as (baseline-displacement)/baseline at a given time post drug administration (see “Results”).
Statistical analysis was performed using R software (version 3.3.1.). Plasma, intact parent fraction and time activity curves were statistically compared between subjects using a one-factor variance analysis. Absolute Test–Retest variability (aTRV) of PET quantification parameters was calculated as ABS(test—retest) / AVERAGE(test, retest). […]

[1] = Cerebellum, Retest, individual NHP
[2] = Cerebellum, Test, individual NHP
[3] = Frontal Cortex, Retest, individual NHP
[4] = Frontal Cortex, Test, individual NHP

T1 sequence (Q4R4X3 whole entry): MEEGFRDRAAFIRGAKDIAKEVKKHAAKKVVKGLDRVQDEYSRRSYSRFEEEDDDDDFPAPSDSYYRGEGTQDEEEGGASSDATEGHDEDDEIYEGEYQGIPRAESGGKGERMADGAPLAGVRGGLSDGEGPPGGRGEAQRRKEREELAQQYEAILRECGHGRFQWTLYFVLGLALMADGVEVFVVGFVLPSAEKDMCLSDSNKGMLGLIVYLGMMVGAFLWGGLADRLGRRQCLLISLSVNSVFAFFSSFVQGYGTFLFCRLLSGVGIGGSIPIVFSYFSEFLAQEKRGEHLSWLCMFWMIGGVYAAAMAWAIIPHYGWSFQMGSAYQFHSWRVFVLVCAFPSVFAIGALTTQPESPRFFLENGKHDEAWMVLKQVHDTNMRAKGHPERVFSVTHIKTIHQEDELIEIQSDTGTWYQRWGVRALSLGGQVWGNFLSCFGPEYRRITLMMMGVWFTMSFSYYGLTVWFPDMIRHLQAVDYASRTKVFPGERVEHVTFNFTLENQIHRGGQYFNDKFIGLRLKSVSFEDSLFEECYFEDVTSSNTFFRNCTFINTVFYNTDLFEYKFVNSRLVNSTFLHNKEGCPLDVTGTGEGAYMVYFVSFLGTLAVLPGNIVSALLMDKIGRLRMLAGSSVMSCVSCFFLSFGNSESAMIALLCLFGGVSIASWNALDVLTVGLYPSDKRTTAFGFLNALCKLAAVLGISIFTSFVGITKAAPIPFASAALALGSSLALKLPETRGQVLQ

SMILES: O=C1C[C@H](c2cc(F)c(F)c(F)c2)CN1Cc1ccncc1[18F] [[^18F]UCB-H]
- aTRV of VT (1TCM): above 10%
- ICC of VT, overall (2TCM-c): ~ 0.4
- aTRV of VT, overall (2TCM-c): ~ 17%
- k3/k4 (surrogate of BPND), average (2TCM-c, average): 1.07 ± 0.02 and 1.1
- ICC of Logan (t* = 60) VT (Cerebellum): 0.32
- aTRV of Logan (t* = 60) VT (Cerebellum): 14%
- K1 (2TCM) [1]: 0.62 ml/cm^3 /min and 0.26 ml/cm^3 /min and 0.34 ml/cm^3 /min and 0.36 ml/cm^3 /min
- K1 (2TCM-c) [1]: 0.58 ml/cm^3 /min and 0.24 ml/cm^3 /min and 0.34 ml/cm^3 /min and 0.36 ml/cm^3 /min
- K1/k2 (2TCM) [1]: 6.41 ml/cm^3 and 10.80 ml/cm^3 and 8.77 ml/cm^3
- K1/k2 (2TCM-c) [1]: 4.64 ml/cm^3 and 9.07 ml/cm^3 and 10.70 ml/cm^3 and 7.25 ml/cm^3
- VT (1TCM) [1]: 12.10 ml/cm^3 and 9.16 ml/cm^3 and 11.41 ml/cm^3 and 8.78 ml/cm^3
- VT (2TCM) [1]: 12.28 ml/cm^3
- VT (2TCM-c) [1]: 12.24 ml/cm^3 and 18.89 ml/cm^3 and 8.78 ml/cm^3
- VT (Logan) [1]: 12.38 ml/cm3 and 11.31 ml/cm3 and 11.82 ml/cm3 and 8.96 ml/cm3
- k3/k4 (2TCM-c) [1]: 1.64 and 0.80
- VT (1TCM) (Cerebellum, Retest, mean): 10.4 mL/cm^3
- VT (2TCM) (Cerebellum, Retest, mean): 12.3 mL/cm^3
- VT (2TCM-c) (Cerebellum, Retest, mean): 13.3 mL/cm^3
- VT (Logan (t* = 60)) (Cerebellum, Retest, mean): 11.1 mL/cm^3
- k3/k4 (BPND) (2TCM-c) (Cerebellum, Retest, mean): 1.22
- K1 (2TCM) [2]: 0.22 ml/cm^3 /min and 0.35 ml/cm^3 /min and 0.39 ml/cm^3 /min and 0.17 ml/cm^3 /min
- K1 (2TCM-c) [2]: 0.23 ml/cm^3 /min and 0.33 ml/cm^3 /min and 0.39 ml/cm^3 /min and 0.17 ml/cm^3 /min
- K1/k2 (2TCM) [2]: 5.68 ml/cm^3 and 6.39 ml/cm^3 and 10.81 ml/cm^3 and 6.69 ml/cm^3
- K1/k2 (2TCM-c) [2]: 4.35 ml/cm^3 and 8.22 ml/cm^3 and 10.99 ml/cm^3 and 7.86 ml/cm^3
- VT (1TCM) [2]: 8.70 ml/cm^3 and 9.24 ml/cm^3 and 12.07 ml/cm^3 and 9.02 ml/cm^3
- VT (2TCM) [2]: 10.64 ml/cm^3 and 10.48 ml/cm^3
- VT (2TCM-c) [2]: 9.72 ml/cm^3
- VT (Logan) [2]: 10.54 ml/cm3 and 10.32 ml/cm3 and 13.27 ml/cm3 and 10.85 ml/cm3
- k3/k4 (2TCM) [2]: 0.87
- k3/k4 (2TCM-c) [2]: 1.24
- VT (1TCM) (Cerebellum, Test, mean): 9.8 mL/cm^3
- VT (2TCM) (Cerebellum, Test, mean): 10.6 mL/cm^3
- VT (2TCM-c) (Cerebellum, Test, mean): 9.70 mL/cm^3
- VT (Logan (t* = 60)) (Cerebellum, Test, mean): 11.2 mL/cm^3
- k3/k4 (BPND) (2TCM-c) (Cerebellum, Test, mean): 1.24
- K1 (2TCM) [3]: 0.45 ml/cm^3 /min and 0.42 ml/cm^3 /min and 0.31 ml/cm^3 /min and 0.37 ml/cm^3 /min
- K1 (2TCM-c) [3]: 0.48 ml/cm^3 /min and 0.45 ml/cm^3 /min and 0.31 ml/cm^3 /min and 0.37 ml/cm^3 /min
- K1/k2 (2TCM) [3]: 12.79 ml/cm^3 and 10.20 ml/cm^3
- K1/k2 (2TCM-c) [3]: 4.64 ml/cm^3 and 9.07 ml/cm^3 and 10.70 ml/cm^3 and 7.25 ml/cm^3
- VT (1TCM) [3]: 14.34 ml/cm^3 and 16.78 ml/cm^3 and 11.35 ml/cm^3 and 12.88 ml/cm^3
- VT (2TCM) [3]: 14.38 ml/cm^3 and 12.14 ml/cm^3 and 12.88 ml/cm^3
- VT (2TCM-c) [3]: 14.39 ml/cm^3 and 18.59 ml/cm^3 and 12.71 ml/cm^3 and 12.90 ml/cm^3
- VT (Logan) [3]: 14.05 ml/cm3 and 20.21 ml/cm3 and 11.72 ml/cm3 and 13.18 ml/cm3
- k3/k4 (2TCM-c) [3]: 2.10 and 1.07 and 0.78
- K1 (2TCM) [4]: 0.24 ml/cm^3 /min and 0.53 ml/cm^3 /min and 0.38 ml/cm^3 /min and 0.22 ml/cm^3 /min
- K1 (2TCM-c) [4]: 0.25 ml/cm^3 /min and 0.55 ml/cm^3 /min and 0.38 ml/cm^3 /min and 0.22 ml/cm^3 /min
- K1/k2 (2TCM) [4]: 8.05 ml/cm^3 and 13.17 ml/cm^3 and 10.76 ml/cm^3 and 11.87 ml/cm^3
- K1/k2 (2TCM-c) [4]: 4.35 ml/cm^3 and 8.22 ml/cm^3 and 10.99 ml/cm^3 and 7.86 ml/cm^3
- VT (1TCM) [4]: 10.97 ml/cm^3 and 18.41 ml/cm^3 and 12.04 ml/cm^3 and 13.68 ml/cm^3
- VT (2TCM) [4]: 12.58 ml/cm^3 and 19.94 ml/cm^3
- VT (2TCM-c) [4]: 11.41 ml/cm^3 and 18.77 ml/cm^3 and 14.10 ml/cm^3
- VT (Logan) [4]: 12.20 ml/cm3 and 19.36 ml/cm3 and 13.14 ml/cm3 and 15.28 ml/cm3
- k3/k4 (2TCM) [4]: 0.56
- k3/k4 (2TCM-c) [4]: 1.63 and 1.51 and 0.61
- ICC of 2TCM-c VT (Frontal cortex): 0.84
- ICC of Logan (t* = 60) VT (Frontal cortex): 0.89
- aTRV of 2TCM-c VT (Frontal cortex): 11%
- aTRV of Logan (t* = 60) VT (Frontal cortex): 11%
- VT (1TCM) (Frontal cortex, Retest, mean): 13.8 mL/cm^3
